Source: ChEMBL document CHEMBL3507680, “University of Dundee, Gates Library screen for HepG2 cell viability”

Assay: Human HepG2 cell viability assay in 384 well format
Type: toxicity, cell-based
Set-up: dose 125 nL, time 70.5 hour; concentration not given beside the values
Details: HepG2 cells, read-out: Inhibition

Compound	cytotoxicity at 70.5 h
Cc1cc2[nH]c(=O)c(=O)[nH]c2cc1S(=O)(=O)NC1CCC(C)CC1 (configuration not stated)	-5.16%
O=C1c2c(O)cc(O)cc2O[C@@H](c2ccc(O)cc2)[C@@H]1O	-7.81%
COC(=O)[C@@H]1Cc2ncn(C)c2CN1S(=O)(=O)c1ccc(Cl)cc1	10.2%
CC(=O)N1CC[C@H]2CC(=O)N(C3CC3)CC[C@H]2C1	14.2%
COc1ccc(CN2C[C@H](O)C[C@H]2c2nc(-c3ccccc3)no2)cc1	9.25%
CCN(CC)CC[C@H]1CN(C(=O)C2CCC2)CC[C@H]1CC(=O)O	5.37%
Cc1ccc(-c2noc([C@@H]3C[C@H](NC(=O)CC(C)(C)C)CN3C)n2)cc1	-2%
Cc1noc([C@@H]2C[C@H](NC(=O)Nc3ccccc3)CN2C)n1	-1.94%
CC(C)NC(=O)C[C@@H]1CCNC[C@@H]1Cc1cc(-c2ccccn2)on1	-16.5%
COC(=O)[C@@H]1CN(S(=O)(=O)c2ccccc2)CCN1S(C)(=O)=O	-7.6%
Cc1nn(-c2ccccn2)c(C)c1[C@@H]1C=C[C@@H](NC(=O)CCC(=O)O)C1	-6.4%
N#Cc1ccc(CN2C[C@@H]3OCC(=O)N[C@@H]3C2)cc1	-5.15%
c1cc(-c2noc([C@@H]3Cc4nc[nH]c4CN3)n2)ccn1	1.06%
CC(C)N1C[C@@H](F)[C@@H](OCc2nc3ncccc3[nH]2)C1	-0.523%
Oc1cccc(-c2cc(CC3(N(CC4CC4)CC4CC4)COC3)no2)c1	-6.61%
CC1(C)[C@H](Cc2cc(CO)on2)C[C@@H]1N(CC1CC1)CC1CC1	5.68%
COC(=O)[C@@H]1Cc2ncn(C)c2CN1S(=O)(=O)c1ccc(C)cc1	-8.32%
CC(C)N1C[C@@H]2OCC(=O)N(Cc3ccccc3)[C@@H]2C1	-10.2%
COc1ccc(-c2c[nH]c([C@@H]3COCCN3)n2)cc1	1.65%
CN1C[C@H](O)C[C@H]1c1nc(-c2ccc(OC(F)(F)F)cc2)no1	-6.54%
Cn1ccnc1CN1C[C@H]2CN(S(C)(=O)=O)CCN2C1=O	-0.342%
CC(C)c1noc([C@@H]2C[C@H](NS(=O)(=O)Cc3ccccc3)CN2C)n1	-0.576%

Compound	cytotoxicity at 70.5 h
CO[C@H]1COCCN(C(=O)c2ccc(C#N)cc2)C1	9.9%
Cc1ccc(-c2cn3c(n2)CO[C@@H](CNCc2cnn(C)c2)C3)cc1	6.98%
CC(=O)N1CC[C@H](c2nnc(Cc3c[nH]c4ccccc34)o2)C1	-3.38%
c1ccc(CNC[C@H]2COCc3nc4cccnc4n32)cc1	11.9%
CCNC(=O)N[C@H]1C[C@@H](Cc2cc(CN3CCCCC3)on2)C1(C)C	-4.13%
FC(F)(F)c1ccc2nc([C@H]3CCN(C4CCOCC4)C3)[nH]c2c1	-12.9%
Cc1nnc([C@H]2CCN(CCCc3ccccc3)C2)o1	8.95%
c1cncc(O[C@H]2COCCN(CC3CC3)C2)c1	0.0943%
CC(C)Cc1cc(CC2(NCc3ccco3)COC2)no1	-3.13%
COc1ccc(CNC2(Cc3cc(CC(C)C)on3)COC2)cc1	9.64%
COc1ccc(-c2noc([C@@H]3C[C@@H](O)CN3C3CCCCC3)n2)cc1	-1.99%
CC1=C[C@@H](CNS(C)(=O)=O)[C@H](C(C)C)C[C@H]1CC(=O)NCCN(C)C	1.17%
O=C(C1CC1)N1CC[C@H](c2nc3ccccc3o2)C1	5.84%
Cc1ccc(N2C(=O)N[C@@H]3CCN(C(=O)C4CCCC4)[C@@H]3C2=O)cc1	-13.1%
COc1ccc(CN2C[C@@H]3OCC(=O)N(Cc4nccn4C)[C@@H]3C2)cc1	-3.1%
Cc1cc2c(C)cc(O)cc2c(=O)o1	-14.8%
COc1ccc(NC(=O)Nc2c(O)c3ccccc3oc2=O)cc1	-1.02%
CCOCc1nc(N2CCOCC2)sc1C(=O)NCCCc1ccco1	0.741%
CCN(CC)CCNCC1CCOC(C)(C)C1 (configuration not stated)	-5.74%
CC(C)NC(=O)COc1cccc(-c2nc(C(C)C)no2)c1	20.9%
COC(=O)c1ccccc1NC(=O)c1c(C)cn(C)c1CC(=O)O	18.3%
Cc1cc2[nH]c(=O)c(=O)[nH]c2cc1S(=O)(=O)NC1CCCCC1	-3.77%

Compound	cytotoxicity at 70.5 h
COc1cccc(CNC(=O)CCC2=Nc3ccccc3S(=O)(=O)N2)c1	-1.77%
Cc1cccn2c(=O)cc(CSCC(=O)Nc3nnc(C(C)C)s3)nc12	1.52%
CCn1nc(Br)nc1Sc1ccccc1NC(C)=O	-0.88%
Cc1ccn(CCC(=O)NC(C)Cc2ccco2)n1 (configuration not stated)	-6.56%
Cc1nc(N2CCN(C)CC2)ncc1C(=O)N1CCCCC1	-0.181%
CCN(CC)S(=O)(=O)c1ccc2c(c1)N(Cc1ccncc1)C(=O)CS2	-3.41%
CCNC(=O)COc1cc(CC)c2c(C)nn(-c3ccc(C)cc3)c2n1	-3.18%
CCOCc1nc(N2CCCC2)sc1C(=O)NCCC(=O)OCC	-6%
CCOCCCNC(=O)C1(C)CCC(=O)N1c1cc(OC)ccc1OC (configuration not stated)	-2.77%
O=C1C[C@H]2[C@H](CCN2C(=O)c2cc[nH]n2)N1Cc1cccnc1	-9.27%
CN(C)C(=O)N1CCC2(CC1)C(=O)N(CC1CCOC1)c1ccccc12 (configuration not stated)	-9.22%
O=C(c1ccco1)N1CCC2(CCC(=O)N2Cc2ccccc2)CC1	-11.1%
Cc1cccc(CN2C(=O)CCC23CCN(C(=O)c2ccco2)CC3)c1	-10.9%
CN(C)C(=O)N1CCN(c2ccc3ccc(C(=O)NC4CC4)cn23)CC1	11.8%
CN(C)C(=O)c1ccc2ccc(N3CCN(CC4CC4)CC3)n2c1	19.2%
CN1[C@@H](C(=O)NCC2CC2)C[C@@H]2CN(Cc3ccoc3)C[C@@H]21	13.7%
Cc1csc2nc3n(c(=O)c12)CCN(C(=O)c1ccncc1)CC3	-7.78%
Cc1ccc(=O)n(CC2(O)CCN(Cc3ccsc3)CC2)n1	-10.6%
CS(=O)(=O)N1CCC(O)(Cn2c(C3CC3)nc3ccccc3c2=O)CC1	-1.88%
O=C(Cn1cccnc1=O)NC(Cc1cccs1)c1ccccn1 (configuration not stated)	-13.9%
CCN1CCN(c2ncc(-c3cc(C)no3)c(-c3ccoc3C)n2)CC1	-2.3%
Cc1nccc(CN2CCC(c3nnsc3S(C)(=O)=O)CC2)n1	-21.3%

Compound	cytotoxicity at 70.5 h
Cc1cc(C)c2cc(CNCc3ccccc3)c3nn(C)c(=O)n3c2c1	3.71%
CCCN(C(=O)c1ccccn1)c1nc2c(s1)CCc1c-2cnn1C	3.64%
c1cc(NC2CC3(CCN(Cc4cc[nH]n4)C3)C2)ncn1 (configuration not stated)	-16.2%
CN(c1ccncn1)C1CC2(CCN(C(=O)CCc3cccs3)C2)C1 (configuration not stated)	-10.3%
CN(c1ccncn1)C1CC2(CCN(C(=O)c3cccs3)C2)C1 (configuration not stated)	-16.4%
Cc1ncccc1O[C@H]1CCN(C(=O)c2cccs2)CC[C@@H]1O	-14.1%
CN(C(=O)C1CCCCC1)[C@@H]1CCC[C@@H](N2CCOCC2)[C@@H]1O	-11.9%
O=C(c1ccc(F)cc1F)N1C[C@@H](O)[C@H](N2CCOCC2)C1	-2.76%
NCc1cn(-c2ccccc2C(=O)NCc2ccccc2)cn1	-18.9%
Cc1nc(C(=O)N2CCC(Cc3cnc4[nH]ccc4c3)C2)co1 (configuration not stated)	18.9%
COc1cccc(OCC2CCCN(C(C)=O)C2)c1 (configuration not stated)	-18.9%
CC(C)c1nccn1-c1cccc(C2CCCN(C3CCCC3)C2)n1 (configuration not stated)	-12.4%
COCCN1CCCC1c1nccnc1Nc1nc(C)cs1 (configuration not stated)	-21.9%
Cc1ncncc1C(=O)Nc1cnn(CC(=O)NC2CCCC2)c1	-19.5%
Cc1ncccc1O[C@H]1CCN(C(=O)Cc2cccs2)CC[C@@H]1O	-7.99%
Cc1cn[nH]c1C1CCCCN1C(=O)CCN1CCCCCC1 (configuration not stated)	-36.7%
Cc1cc2c(=O)n3c(nc2s1)CCN(Cc1cnc(C(C)C)nc1)CC3	-14.8%
Cc1cc2cc(C(=O)N3CC[C@H](O)[C@]4(CCCO4)C3)ccc2o1	-18.1%
CC(C)c1nccn1-c1cccc(C2CCCN2S(=O)(=O)N(C)C)n1 (configuration not stated)	0.791%
COCC(=O)NC[C@@]1(COc2cnccn2)C[C@@H](O)[C@@H](O)C1	13.8%
COCC(=O)NC[C@@]1(COc2cccnc2)C[C@@H](O)[C@@H](O)C1	3.07%
CNC(=O)C(C)(C)N1CCC[C@H]1C(=O)NCCN(C)C	-16.8%

Compound	cytotoxicity at 70.5 h
O=C1CC2(CCCNC2)C(=O)N1Cc1cccc(F)c1 (configuration not stated)	-8.03%
O=C1CC2(CCCNC2)C(=O)N1Cc1ccc(Cl)cc1 (configuration not stated)	-15.9%
O=C1CC2(CCCNC2)C(=O)N1Cc1cccc(Cl)c1 (configuration not stated)	29.4%
OC[C@H]1CC[C@]2(CC1)CN(Cc1ccccc1F)Cc1ccccc1O2	-3.44%
Cc1ncc(CN2Cc3ccccc3O[C@]3(CC[C@H](CO)CC3)C2)cn1	-2.89%
Cc1cc(-c2cnn(CCNC(=O)c3cccnc3)c2C2CC2)on1	-16.3%
CCOc1ccccc1C(=O)N1CCCC1c1ncc2c(n1)CCNC2 (configuration not stated)	22.9%
O=C(O)c1cc(NS(=O)(=O)c2ccc(Cl)s2)ccc1N1CCOCC1	-2.78%
CC(C)CN1CCC2(C=C(C(=O)NC3CC3)c3ccccc32)CC1	-11.9%
COCCN1CCC2(CCN(Cc3ccc(OC)cc3)CC2)C1=O	-11.1%
CCO[C@@H]1CO[C@@]2(CCN(Cc3ccc4c(c3)OCO4)C2)C1	-17.3%
CC(C)CN1CCC2(CCN(Cc3ccc(F)cc3)CC2)C1=O	-5.32%
C[C@H]1CN(C(=O)c2ccoc2)C[C@@]12CCN(CCN(C)C)C2=O	14.7%
CC(=O)N1[C@H](CN(C)C)C[C@@H]2CN(C(=O)c3cncc(C)c3)CC[C@@H]21	-10.6%
COc1ccc(CN2CCC3(CC2)CCN(CCN(C)C)C3=O)cc1	-18%
Cc1nc2cc(C3CCN(Cc4cccc(F)c4F)C3)nn2c(O)c1C (configuration not stated)	-20.4%
COc1cccc(CN2CCC(c3cc(O)nc(C)n3)C2)c1 (configuration not stated)	-3.89%
CC1(C)CC(N(Cc2ccccc2)Cc2cccnc2)CC(C)(C)N1	30.7%
O=C(COc1ccccc1)N1C[C@@H](O)[C@H](N2CCCC2)C1	-12.1%
